Values of other authors, collected in patent EP3599609A1, “SYSTEM AND METHOD FOR CLEANING NOISY GENETIC DATA AND USING DATA TO MAKE PREDICTIONS” (Natera, Inc., priority 2005, dated 2007).

Details: colon cancer patients treated with irinotecan

CCc1c2c(nc3ccc(OC(=O)N4CCC(N5CCCCC5)CC4)cc13)-c1cc3c(c(=O)n1C2)COC(=O)[C@]3(O)CC [irinotecan]
severe diarrhea, patients affected: 31%
severe neutropenia, patients affected: 28%
